Experiment [1] deals with B. cereus ATCC 11778. The experiment is described as follows: MIC, NCCLS broth microdilution assay. The experiment is classed as cell-based, Bacillus cereus. The following applies: B. cereus ATCC 11778. (In general: Broth dilution looks for growth in wells or tubes with falling amounts of substance.)
The subject of experiment [2] is E. coli ATCC 25922. The experiment is described as follows: MIC, NCCLS broth microdilution assay. The following applies: E. coli ATCC 25922. The class given is cell-based, Escherichia coli.
For experiment [3], the system named is E. faecalis ATCC 29212. The experiment is described as follows: MIC, NCCLS broth microdilution assay. The class given is cell-based, Enterococcus faecalis. The following applies: E. faecalis ATCC 29212.
Experiment [4] concerns S. epidermidis ATCC 12228. Put plainly: MIC, NCCLS broth microdilution assay. The class given is cell-based, Staphylococcus epidermidis.
From the text: (§1) In vitro biological activity data were collected for a variety of microorganisms, including Bacillus cereus (ATCC 11778), Staphylococcus aureus (ATCC 33591; ATCC 27660, a methicillin resistant strain (MRSA); ATCC 13709, a methicillin sensitive strain (MSSA)), Escherichia coli (ATCC 25922), Enterococcus faecalis (ATCC 29212), Streptococcus pneumoniae (ATCC 49619; ATCC 51422, a penicillin resistant strain (PRSP)), Enterococcus faecium (ATCC 51559, a vancomycin resistant strain (VRE)), and Staphylococcus epidermidis (ATCC 12228).
(§2) The minimal inhibition concentration (MIC) of these compounds was determined using the National Committee for Clinical Laboratory Standards (NCCLS) broth microdilution assay in microtiter plates, as set forth in: (1) the guidelines of the National Committee for Clinical Laboratory Standards (NCCLS) Document M7-A4 (NCCLS, 1997); (2) the guidelines of the National Committee for Clinical Laboratory Standards (NCCLS) Document M11-A4 (NCCLS, 1997); and (3) the guidelines and reference method of the National Committee for Clinical Laboratory Standards (NCCLS) Document M27 -T (NCCLS, 1995).
Experiment [5] has as its system C. albicans ATCC 38247. The experiment is described as follows: MIC, antifungal assay. The class given is cell-based, Candida albicans. The following applies: C. albicans ATCC 38247.
From the text: In vitro biological activity data were collected for a variety of microorganisms, including Bacillus cereus (ATCC 11778), Staphylococcus aureus (ATCC 33591; ATCC 27660, a methicillin resistant strain (MRSA); ATCC 13709, a methicillin sensitive strain (MSSA)), Escherichia coli (ATCC 25922), Enterococcus faecalis (ATCC 29212), Streptococcus pneumoniae (ATCC 49619; ATCC 51422, a penicillin resistant strain (PRSP)), Enterococcus faecium (ATCC 51559, a vancomycin resistant strain (VRE)), and Staphylococcus epidermidis (ATCC 12228). Additionally, antifungal activity data were collected for Candida albicans (ATCC 38247).
The minimal inhibition concentration (MIC) of these compounds was determined using the National Committee for Clinical Laboratory Standards (NCCLS) broth microdilution assay in microtiter plates, as set forth in: (1) the guidelines of the National Committee for Clinical Laboratory Standards (NCCLS) Document M7-A4 (NCCLS, 1997); (2) the guidelines of the National Committee for Clinical Laboratory Standards (NCCLS) Document M11-A4 (NCCLS, 1997); and (3) the guidelines and reference method of the National Committee for Clinical Laboratory Standards (NCCLS) Document M27 -T (NCCLS, 1995). For antifungal assays, the method recommended in Murray, PR., 1995 Manual of Clinical Microbiology (ASM Press, Washington, D.C.), was employed.
For experiment [6], the system named is S. pneumoniae ATCC 49619. Put plainly: MIC, NCCLS broth microdilution assay. The class given is cell-based, Streptococcus pneumoniae. The following applies: S. pneumoniae ATCC 49619.
In experiment [7] the test system is S. aureus ATCC 13709. The experiment is described as follows: MIC, NCCLS broth microdilution assay. The class given is cell-based, Staphylococcus aureus. The following applies: S. aureus ATCC 13709, methicillin sensitive strain (MSSA).
Experiment [8] relates to S. aureus ATCC 27660. Put plainly: MIC, NCCLS broth microdilution assay. The note with it: S. aureus ATCC 27660, methicillin resistant strain (MRSA). The experiment is classed as cell-based, Staphylococcus aureus.
The test system of experiment [9] is S. aureus ATCC 33591. Put plainly: MIC, NCCLS broth microdilution assay. The class given is cell-based, Staphylococcus aureus. The note with it: S. aureus ATCC 33591.
From the text: as §1, §2

Here are results for twelve molecules from US7498349B2, “Biaryl compounds having anti-infective activity” (Genesoft Pharmaceuticals, Inc., priority 2002, dated 2009).

Structures are written as SMILES. A value given as a limit tells only on which side of the number the result lay.

Turning to `O=C(Nc1ccc(-c2cc3ccccc3o2)cc1)c1cccnc1NCCCNC1CCCCC1` [Compound A-12], the “Minimum Inhibitory Concentration (MIC)” value in experiment [1] is “+ (12 ≦ MIC ≦ 32)”; in experiment [2], more than 32 µg/mL; in experiment [3], “++ (4 < MIC < 12)”; in experiment [4], “+ (12 ≦ MIC ≦ 32)”; in [5], “+ (12 ≦ MIC ≦ 32)”; in experiment [6], “++ (4 < MIC < 12)”.

For the molecule `O=C(Nc1ccc(-c2cc3ccccc3o2)nc1)c1ccc(Cl)cc1NCCN1CCNCC1` [Compound A-42], the “Minimum Inhibitory Concentration (MIC)” value in experiment [1] was “++ (4 < MIC < 12)”; in experiment [2], more than 32 µg/mL; in experiment [7], “++ (4 < MIC < 12)”; in experiment [8], “++ (4 < MIC < 12)”; in experiment [3] it was “++ (4 < MIC < 12)”; in experiment [4], “++ (4 < MIC < 12)”. Besides, the entries for the “Minimum Inhibitory Concentration (MIC)” value in experiment [5] and in experiment [6] were more than 32 µg/mL and “+ (12 ≦ MIC ≦ 32)”, respectively.

On to `NCCNc1snc(C(=O)Nc2ccc(-c3cc4ccccc4o3)nc2)c1Cl` [Compound A-38], for which the “Minimum Inhibitory Concentration (MIC)” value in experiment [1] was “+++ (MIC ≦ 4)”; in experiment [2], more than 32 µg/mL; in experiment [7], “+++ (MIC ≦ 4)”; in experiment [8], “+++ (MIC ≦ 4)”; in experiment [9], “+++ (MIC ≦ 4)”; in experiment [3] it was “+++ (MIC ≦ 4)”. Further, the “Minimum Inhibitory Concentration (MIC)” value in experiment [5] was “+ (12 ≦ MIC ≦ 32)”; in experiment [6], more than 32 µg/mL.

Regarding `O=C(Nc1ccc(-c2cc3ccccc3s2)nc1)c1nsc(NCCN2CCCCC2)c1Cl` [Compound A-69], the “Minimum Inhibitory Concentration (MIC)” value in experiment [1], in experiment [2], in experiment [7], in experiment [8], in [9] and in [3] was more than 32 µg/mL each time. Besides, the “Minimum Inhibitory Concentration (MIC)” value in experiment [5] and in [6] was more than 32 µg/mL throughout.

On to `O=C(Nc1ccc(-c2cc3ccccc3s2)cc1)c1cccnc1NCCN1CCNCC1` [Compound A-48], for which the “Minimum Inhibitory Concentration (MIC)” value is “+ (12 ≦ MIC ≦ 32)” in [1]; more than 32 µg/mL in [2]; “+++ (MIC ≦ 4)” in experiment [7]; “+++ (MIC ≦ 4)” in experiment [8]; “+++ (MIC ≦ 4)” in [9]; more than 32 µg/mL in experiment [3]. For the same molecule, the “Minimum Inhibitory Concentration (MIC)” value in experiment [5] and in [6] was more than 32 µg/mL throughout.

For `O=C(Nc1ccc(-c2cc3ccccc3[nH]2)cc1)c1cccnc1NCCN1CCOCC1` [Compound A-66], the “Minimum Inhibitory Concentration (MIC)” value in experiment [1], in [2], in experiment [7], in experiment [8], in experiment [9] and in experiment [3] was more than 32 µg/mL each time. Moreover, the “Minimum Inhibitory Concentration (MIC)” value in [5] and in experiment [6] was more than 32 µg/mL throughout.

In the case of `CN(C)CCCNc1ncccc1C(=O)Nc1ccc(-c2cc3ccccc3s2)nc1` [Compound A-74], the “Minimum Inhibitory Concentration (MIC)” value was “+ (12 ≦ MIC ≦ 32)” in experiment [1]; more than 32 µg/mL in [2]; “++ (4 < MIC < 12)” in experiment [7]; “+ (12 ≦ MIC ≦ 32)” in experiment [8]; “++ (4 < MIC < 12)” in [9]; “++ (4 < MIC < 12)” in experiment [3]. Further, the “Minimum Inhibitory Concentration (MIC)” value in experiment [5] and in experiment [6] was “+ (12 ≦ MIC ≦ 32)” throughout.

Consider `O=C(Nc1ccc(-c2cc3ccccc3o2)cc1)c1ccc(Cl)cc1NCCN1CCCC1` [Compound A-25], for which the “Minimum Inhibitory Concentration (MIC)” value is more than 32 µg/mL in [1]; more than 32 µg/mL in experiment [2]; “+ (12 ≦ MIC ≦ 32)” in [7]; “+ (12 ≦ MIC ≦ 32)” in experiment [8]; “+ (12 ≦ MIC ≦ 32)” in experiment [9]; “+ (12 ≦ MIC ≦ 32)” in experiment [3]. Further, the “Minimum Inhibitory Concentration (MIC)” value in [5] and in experiment [6] was more than 32 µg/mL in each case.

In the case of `NCCNc1snc(C(=O)Nc2ccc(-c3cc4ccccc4[nH]3)cc2)c1Cl` [Compound A-56], the “Minimum Inhibitory Concentration (MIC)” value is more than 32 µg/mL in experiment [1]; more than 32 µg/mL in experiment [2]; “++ (4 < MIC < 12)” in [7]; “++ (4 < MIC < 12)” in experiment [8]; “++ (4 < MIC < 12)” in experiment [9]; “+ (12 ≦ MIC ≦ 32)” in experiment [3]. The “Minimum Inhibitory Concentration (MIC)” value in experiment [5] was “+ (12 ≦ MIC ≦ 32)”; in [6] it was more than 32 µg/mL.

For the molecule `CCN(CC)CCCNc1cc(Cl)ccc1C(=O)Nc1ccc(-c2cc3ccccc3o2)cc1` [Compound A-23], the “Minimum Inhibitory Concentration (MIC)” value in experiment [1] is “+++ (MIC ≦ 4)”; in experiment [2], more than 32 µg/mL; in experiment [7], “+++ (MIC ≦ 4)”; in experiment [8], “+++ (MIC ≦ 4)”; in [9], “+++ (MIC ≦ 4)”; in [3], “+++ (MIC ≦ 4)”. For the same molecule, the “Minimum Inhibitory Concentration (MIC)” value in [5] and in [6] was “+ (12 ≦ MIC ≦ 32)” throughout.

For `CN(CCCN)CCCNc1snc(C(=O)Nc2ccc(-c3cc4ccccc4s3)nc2)c1Cl` [Compound A-71], the “Minimum Inhibitory Concentration (MIC)” value in experiment [1], in experiment [2], in experiment [7], in experiment [8], in [9] and in [3] was “+++ (MIC ≦ 4)” throughout. Besides, the “Minimum Inhibitory Concentration (MIC)” value in [5] is “++ (4 < MIC < 12)”; in [6], “+ (12 ≦ MIC ≦ 32)”.

On to `Cc1cc(NC(=O)c2cccnc2NCCN2CCCCC2)ccc1-c1cc2ccccc2o1` [Compound A-27], for which the “Minimum Inhibitory Concentration (MIC)” value in [1] is “++ (4 < MIC < 12)”; in experiment [2], more than 32 µg/mL; in experiment [7], “+++ (MIC ≦ 4)”; in experiment [8], “+++ (MIC ≦ 4)”; in experiment [9], “+++ (MIC ≦ 4)”; in experiment [3], “+++ (MIC ≦ 4)”. The “Minimum Inhibitory Concentration (MIC)” value is reported as “++ (4 < MIC < 12)” in [5] and “+ (12 ≦ MIC ≦ 32)” in experiment [6].
